Target: T1, human mPGES-1 (Homo sapiens, UniProt O14684)
T1 construct: made in house; host or cells: E. coli (membrane fraction)
T1 sequence (O14684 1-152): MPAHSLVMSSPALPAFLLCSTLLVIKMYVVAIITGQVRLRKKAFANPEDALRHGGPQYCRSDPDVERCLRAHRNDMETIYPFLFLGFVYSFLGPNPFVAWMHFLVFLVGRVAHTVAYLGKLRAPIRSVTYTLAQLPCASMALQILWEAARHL
Test: mPGES-1 inhibition assay (conversion of PGH2 to PGE2, HPLC analysis)
Type: biochemical
Details: human mPGES-1 expressed in E. coli, membrane fraction; 25 min preincubation with inhibitor, PGH2 substrate 60 seconds, room temperature; read-out: concentration at which 50% inhibition of mPGES-1 was observed
Experimental: In the assay human mPGES-1 catalyses the reaction where the substrate PGH2 is converted to PGE2. mPGES-1 is expressed in E. coli and the membrane fraction is dissolved in 20 mM NaPi-buffer pH 8.0 and stored at −80° C. […] The stop solution consists of H2O/MeCN (7/3), containing FeCl2 (25 mM) and HCl (0.15 M). The assay is performed at room temperature in 96-well plates.
The following is added chronologically to each well: • 1. 100 μL human in PGES-1 in KPi-buffer with glutathione. Total protein concentration: 0.02 mg/mL. • 2. 1 μL inhibitor in DMSO. Incubation of the plate at room temperature for 25 minutes. • 3. 4 μL of a 0.25 mM PGH2 solution. Incubation of the plate at room temperature for 60 seconds. • 4. 100 μL stop solution. • 180 μL per sample is analyzed with HPLC.

Structure (SMILES)	IC50 [nM]
CC(=O)Nc1c(C(=O)O)n(-c2ccc(OC(C)C)cc2)c2ccc(-c3ccc(OC(C)C)cc3)cc12 [Example 1, 3-Acetamido-1,5-bis(4-isopropoxyphenyl)-indole-2-carboxylic acid]	3100
CC(C)Oc1ccc(-c2ccc3c(c2)c(NS(C)(=O)=O)c(C(=O)O)n3-c2ccc(OC(C)C)cc2)cc1 [Example 3, 1,5-Bis(4-isopropoxyphenyl)-3-(methylsulfonamido)indole-2-carboxylic acid]	1700
CC(C)Oc1ccc(-n2c(C(=O)O)c(N3CCOCC3)c3cc(-c4ccc(C(F)(F)F)cc4)ccc32)cc1 [Example 7, 1-(4-Isopropoxyphenyl)-3-(4-morpholino)-5-(4-(trifluoromethyl)phenyl)-indole-2-carboxylic acid]	730
CC(=O)N(C)c1c(C(=O)O)n(-c2ccc(OC(C)C)cc2)c2ccc(-c3ccc(C(F)(F)F)cn3)cc12 [Example 12, 3-(Acetylmethylamino)-1-(4-isopropoxyphenyl)-5-(5-trifluoromethyl-pyridin-2-yl)-1H-indole-2-carboxylic acid]	5300
CC(C)Oc1ccc(-n2c(C(=O)O)c(NC(=O)c3cccnc3)c3cc(-c4ccc(C(F)(F)F)cn4)ccc32)cc1 [Example 13, 1-(4-Isopropoxyphenyl)-3-nicotinamide-5-(5-trifluoromethylpyridin-2-yl)-1H-indole-2-carboxylic acid]	190
